# Test results as given in article PMC6547740, “Potent and specific MTH1 inhibitors targeting gastric cancer” (Cell Death & Disease, 2019).
# How the values were obtained:
# [1] = tested on: MGC-803 cells; assay: MTT cell viability, MGC-803; type: cell-based; conditions: Homo sapiens, gastric cancer cell line, 72 h
# Description: (§1) The cell viability was determined by 3-(4,5-dimethylthiazol-2-yl)-2,5-diphenyltetrazolium bromide (MTT) assay, according to the manufacturer’s instructions. 1 day before treatment, cells were seeded into 96-well plates at a concentration of 2–5 × 10^3 cells per well, followed by treatment with fresh medium containing serial dilutions of candidate compounds for 48 or 72 h, 20 μL of MTT solution (5 mg/mL in PBS) was then added to each well. After treatment, the plates were incubated at 37 °C for another 4 h. Subsequently, the MTT solution was removed and 150 μL of DMSO was added to each well for 10 min, and then the plates were shaken to dissolve the dark blue crystal (formazan), the absorbance was detected at 570 nm using a BioTek microplate reader. The data were analyzed using SPSS 20 software.
# [2] = tested on: GES-1 cells; assay: Colony formation assay, GES-1; type: cell-based, human; conditions: GES-1 gastric normal cells, 7 days treatment
# Description: (§2) The day before treatment, cells were seeded into six-well plates at a concentration of 1 × 10^3 cells per well, and then the media were replaced with fresh media containing serial concentrations of candidate compounds. After 7 days of treatment, the cells were fixed with 75% ethanol, stained with 0.1% crystal violet solution and captured by the microscopy (Leica). After that, the crystal violet crystals were dissolved by adding methanol. The absorbance at 595 nm was measured by a BioTek micro plate reader. In the end, the data were analyzed using the GraphPad Prism 5 software.
# [3] = tested on: pc9 cells; assay: MTT cell viability, pc9; type: cell-based; conditions: Homo sapiens, PC-9, 72 h
# Description: as §1
# [4] = tested on: MCF-7 cells; assay: MTT cell viability, MCF-7; type: cell-based; conditions: Homo sapiens, MCF7, breast cancer cell line, 72 h
# Description: as §1
# [5] = tested on: H1975 cells; assay: MTT cell viability, H1975; type: cell-based; conditions: Homo sapiens, NCI-H1975, 72 h
# Description: as §1
# [6] = Body weight and organ H&E staining in xenograft mice; type: in vivo, BALB/c nude mice; conditions: 40 mg/kg, gavage once a day for 25 days, vs oil group
# Description: All animal experiments were conducted according to the guidelines of the Institutional Animal Care and Use Committee of Zhengzhou University. Four or five-week-old female BALB/c nude mice, weighing 18–21 g were purchased from Hunan Slack Scene of Laboratory Animal Company, LTD (Hunan, China). They received abundant food and water and were housed in a laminar flow under sterilized condition. 200 µL MGC-803 cells at the concentration of 5 × 10^7/mL were injected into the right scapular region of the mice. When most of the tumor volumes reached 100 mm^3, mice were randomly divided into oil (solvent) group and MI-743(40 mg/kg) treatment group. Then, they received gavage daily for 25 days. The body weight was weighed every 2 days and the tumor volumes were measured every 4 days. At the 25th day, the tumors were surgically removed and weighed. The tumor size was determined by vernier caliper measurements and the tumor and major organs were fixed in 4% buffered paraformaldehyde and paraffin-embedded for hematoxylin and eosin (HE) staining, immunohistochemistry (IHC) and TUNEL assay.
# [7] = tested on: HGC-27 cells; assay: 8-oxo-dG assay (Cy3-conjugated avidin), HGC-27; type: cell-based, human; conditions: HGC-27, 5 µM, 48 h, compared with DMSO
# Description: Intracellular 8-oxo-dG levels were measured by staining with Cy3-conjugated avidin[65]. Cells were seeded on coverslips in 24-well plates (1–1.5 × 10^4 cells/well) overnight, and then transfected with candidate compounds. After 48 h, the cells were fixed with ice-cold methanol in Tris-buffered saline (TBS) for 15 min and blocked, using TBS with 0.1% Triton X-100 and 15% fetal bovine serum for 1 h. Then, the cells were stained with Cy3-conjugated avidin (0.5 µg/mL) for 1 h at room temperature. DNA was counterstained with 4,6-diamidino-2-phenylindole(DAPI). Images were acquired in a Nikon Eclipse TE 2000-S fluorescence microscope.
# [8] = tested on: EC109 cells; assay: MTT cell viability, EC109; type: cell-based; conditions: Homo sapiens, ECa-109, esophageal cancer cell line, 72 h
# Description: as §1
# [9] = tested on: SMMC-7721 cells; assay: MTT cell viability, SMMC-7721; type: cell-based; conditions: Homo sapiens, liver cancer cell line, 72 h
# Description: as §1
# [10] = tested on: HGC-27 cells; assay: Colony formation assay, HGC-27; type: cell-based, human; conditions: HGC-27, 7 days treatment, compared with DMSO or MI-929
# Description: as §2
# [11] = molecular target: MTH1 (Homo sapiens, UniProt P36639); assay: MTH1 recombinant protein activity / inhibitor screening (malachite green); type: biochemical; set-up: His-tag; made in house; host or cells: E. coli BL21(DE3); conditions: 5 nM recombinant MTH1, dGTP substrate, absorbance 630 nm; read-out: IC50 (MTH1 inhibition)
# Description: On the basis of the ability of MTH1 in converting dGTP to dGMP and pyrophosphate, and the latter can then be hydrolyzed to […] by inorganic pyrophosphatase, the MTH1 activity was designed to measure the product of […], after its reaction with malachite green and ammonium molybdate(Fig. 2l), the green associated complex was measured at 630 nm by PerkinElmer Envision microplate reader.
# Firstly, the assay buffer (100 mM Tris-acetate at pH 8.0, 40 mM NaCl, 10 mM Mg-acetate, 0.005% Tween 20 and 1 mM DTT) was added into a 96-well plate. Then, 5 nM recombinant human MTH1, […] dGTP and 0.2U/ml […] were added in sequence. After 60 min reaction, the mixture of 0.45 mg/mL malachite green and 4.2% ammonium molybdate in proportion of 3:1 were added. Then, the plates were incubated and shaken at room temperature for another 60 min. The absorbance was measured at 630 nm using the PerkinElmer Envision micro plate reader.
# [12] = tested on: L02 cells; assay: MTT cell viability, L02; type: cell-based; conditions: Homo sapiens, normal liver cell line, 72 h
# Description: as §1
# [13] = tested on: KYSE-450 cells; assay: MTT cell viability, KYSE-450; type: cell-based; conditions: Homo sapiens, esophageal cancer cell line, 72 h
# Description: as §1
smiles,measurement,setting,value
"C#CCSc1nc(NNC(N)=S)c(C#N)c(-c2ccc3oc(=O)ccc3c2)n1 [MI-743, 2-(5-cyano-6-(2-oxo-2H-chromen-6-yl)-2-(prop-2-yn-1-ylthio)pyrimidin-4-yl)hydrazine-1-carbothioamide]",IC50,[1],2.91 ± 0.46 µM
same,colony formation,[2],no obviously inhibitory effect
same,IC50,[3],9.53 ± 0.98 µM
same,IC50,[4],9.67 ± 1.01 µM
same,IC50,[5],15.1 ± 1.18 µM
same,"H&E staining of the liver, kidney, lung, heart and spleen",[6],no signs of toxicity
same,mouse body weight,[6],did not present obvious change
same,levels of 8-oxo-dG,[7],sharply increased
same,IC50,[8],6.99 ± 0.84 µM
same,IC50,[9],5.39 ± 0.73 µM
same,colony formation,[10],smaller and fewer colonies
same,IC50,[11],0.0914 ± 0.00145 µM
same,IC50,[12],17.3 ± 1.23 µM
same,IC50,[13],6.69 ± 0.82 µM
